Source: patent US20140023592A1, “SELF COUPLING RECOMBINANT ANTIBODY FUSION PROTEINS” (RWTH Aachen, priority 2007, published 2014)

Test system: FKBP-AGT fusion protein (SNAP-FKBP)
Test: Reactivity with FKBP-AGT fusion protein (protein trimer formation, SDS-PAGE/coomassie)
Format: biochemical
Details: in vitro, 4 h incubation at rt, SDS-PAGE with coomassie staining
Description: Determination of the Reactivity of Compound (FIG. 89), (FIG. 90), (FIG. 91), (FIG. 92) and (FIG. 96) with FKBP-AGT Fusion Protein 1 μL of a 591 μM solution of FKBP protein fused to a variant of AGT available from Covalys as […] and 1 μL of a 100 μM solution of compound (FIG. 89), (FIG. 90), (FIG. 91), (FIG. 92) or (FIG. 96) are added to 8 μL of a solution of 50 mM Tris-HCl pH 7.5; 100 mM NaCl; 0.1% Tween20TM; 1 mM DTT. Following a 4 h incubation at rt, 15 μL of a solution of 100 mM Tris-HCl pH 6.8; 2% SDS; 35% glycerol; 10 mM EDTA; 20 mM DTT is added. Then the mixture is boiled for 5 min at 95° C. After cooling to rt, 25 μL of this solution is loaded on a 4-20% linear gradient SDS-PAGE gel. After electrophoresis, the proteins are coomassie stained in gel to visualize protein trimer.

Chain of FKBP-AGT fusion protein (SNAP-FKBP) (P16455 1-182 C62A/K125A/A127T/R128A/G131K/G132T/M134L/R135S/C150S/N157G/S159E limits assumed): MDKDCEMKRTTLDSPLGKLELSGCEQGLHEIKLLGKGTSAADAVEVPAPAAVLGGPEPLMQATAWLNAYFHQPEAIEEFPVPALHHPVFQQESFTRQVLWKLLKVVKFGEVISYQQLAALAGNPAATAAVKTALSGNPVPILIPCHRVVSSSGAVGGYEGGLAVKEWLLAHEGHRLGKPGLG

Substance	structural ability to trigger the formation of a protein trimer
N-Tris-{[2-(BG-PEG12-NH)-carbonylethoxy]methyl}-methyl 5-maleimidopentanecarboxamide [FIG. 92]	confirmed
N-Tris-{[2-(BG-PEG12-NH)-carbonylethoxy]methyl}-methyl ATTO-495-carboxamide [FIG. 90]	confirmed
N-Tris-{[2-(BG-PEG12-NH)-carbonylethoxy]methyl}-methyl nile red-oxyacetamide [FIG. 91]	confirmed
N-Tris-{[2-(BG-PEG12-NH)-carbonylethoxy]methyl}-methyl-3-[2-(2-maleimidoethyl)disulfanyl]propanoylamide [FIG. 96]	confirmed
N-Tris-{[2-(BG-PEG12-NH)-carbonylethoxy]methyl}methyl 7-(diethylamino)coumarin-3-carboxamide [FIG. 89]	confirmed
